# According to ChEMBL document CHEMBL4680281, “Recent Advances on Nitrones Design for Stroke Treatment” (J Med Chem, 2020):
# How the values were obtained:
# [1] = Antioxidant activity assessed as SIN1-induced ONOO scavenging activity at 1 mM incubated for 1250 secs by chemiluminescence method relative to control; assay type: functional; conditions: time 1250.0 sec
# [2] = Drug concentration in Sprague-Dawley rat brain at 80 mg/kg, iv measured after 5 mins by reverse-phase HPLC method; assay type: ADME, organism-based; conditions: read-out: Ct
# [3] = Antioxidant activity assessed as SIN1-induced ONOO scavenging activity at 1 uM incubated for 1250 secs by chemiluminescence method relative to control; assay type: functional; conditions: time 1250.0 sec
# Rattus norvegicus = test: Neuroprotective activity in Sprague-Dawley rat model of permanent middle cerebral artery occlusion assessed as infarction volume at 80 mg/kg, ip administered 2 hr post MCAO induction and measured 14 hrs post MCAO challenge by TTC staining based assay (reference value: 27.5%); assay type: functional; conditions: time 12 hrs
smiles,measurement,setting,value
Cc1nc(C)c(/C=[N+](\[O-])C(C)(C)C)nc1C,Activity,[1],94.7%
same,concentration at 5 min,[2],650 µM
same,Activity,[3],35.3%
same,Activity,Rattus norvegicus,20.3%
